Source: USRE39591E1, “6-O-substituted ketolides having antibacterial activity” (Abbott Laboratories, priority 1996, dated 2007)
In brackets after ≈: the same amount, converted by molar mass.

Tested on: up to 32 different microorganisms
Assay: in vitro antibacterial activity (MIC), agar dilution on Brain Heart Infusion (BHI) agar with Steers replicator
Type: cell-based
Conditions: unit assumed
Description: Representative compounds of the present invention were assayed in vitro for antibacterial activity as follows: Twelve petri dishes containing successive aqueous dilutions of the test compound mixed with 10 mL of sterilized Brain Heart Infusion (BHI) agar (Difco 0148-01-5) were prepared. Each plate was inoculated with 1:100 (or 1:10 for slow-growing strains, such as Micrococcus and Streptococcus) dilutions of up to 32 different microorganisms, using a Steers replicator block. The inoculated plates were incubated at 35°-37° C. for 20 to 24 hours. In addition, a control plate, using BHI agar containing no test compound, was prepared and incubated at the beginning and end of each test.
An additional plate containing a compound having known susceptibility patterns for the organisms being tested and belonging to the same antibiotic class as the test compound was also prepared and incubated as a further control, as well as to provide test-to-test comparability. Erythromycin A was used for this purpose.
After incubation, each plate was visually inspected. The minimum inhibitory concentration (MIC) was defined as the lowest concentration of drug yielding no growth, a slight haze, or sparsely isolated colonies on the inoculum spot as compared to the growth control.

| Compound | MIC (organism code AA) [µg/mL] | MIC (organism code BB) [µg/mL] | MIC (organism code CC) [µg/mL] | MIC (organism code DD) [µg/mL] | MIC (organism code EE) [µg/mL] | MIC (organism code FF) [µg/mL] | MIC (organism code GG) [µg/mL] | MIC (organism code HH) [µg/mL] | MIC (organism code II) [µg/mL] | MIC (organism code JJ) [µg/mL] | MIC (organism code KK) [µg/mL] | MIC (organism code LL) [µg/mL] | MIC (organism code MM) [µg/mL] | MIC (organism code NN) [µg/mL] | MIC (organism code OO) [µg/mL] | MIC (organism code PP) [µg/mL] | MIC (organism code QQ) [µg/mL] | MIC (organism code RR) [µg/mL] | MIC (organism code SS) [µg/mL] | MIC (organism code TT) [µg/mL] | further results |
| --- | --- | --- | --- | --- | --- | --- | --- | --- | --- | --- | --- | --- | --- | --- | --- | --- | --- | --- | --- | --- | --- |
| CCC1OC(=O)C(C)C(=O)C(C)C(OC2OC(C)CC(N(C)C)C2O)C(C)(OCC=Cc2ccc3ccccc3n2)CC(C)C(=O)C(C)C2NC(=O)OC12C (centres unmarked) [Example 212, R is —CH2CH═CH-(2-quinolyl)] | 0.39 (≈ 0.509 µM) | 0.39 (≈ 0.509 µM) | > 100 | 0.39 (≈ 0.509 µM) | 0.39 (≈ 0.509 µM) | 0.39 (≈ 0.509 µM) | > 100 | 0.39 (≈ 0.509 µM) | 0.1 (≈ 0.131 µM) | ≤ 0.005 | 0.1 (≈ 0.131 µM) | 0.05 (≈ 0.0653 µM) | 25 (≈ 32.6 µM) | 0.39 (≈ 0.509 µM) | 0.05 (≈ 0.0653 µM) | 0.39 (≈ 0.509 µM) | > 100 | 0.39 (≈ 0.509 µM) | > 100 | > 100 | MIC (organism code UU): 0.78 µg/mL (≈ 1.02 µM); MIC (organism code VV): 0.2 µg/mL (≈ 0.261 µM); MIC (organism code WW): 8 µg/mL (≈ 10.4 µM); MIC (organism code XX): 0.125 µg/mL (≈ 0.163 µM); MIC (organism code YY): 0.25 µg/mL (≈ 0.326 µM); MIC (organism code ZZ): 128 µg/mL (≈ 167 µM); MIC (organism code ZZA): 1 µg/mL (≈ 1.31 µM) |
| CCC1OC(=O)C(C)C(=O)C(C)C(OC2OC(C)CC(N(C)C)C2O)C(C)(OCC=Cc2cnc3ccc(C#N)cc3c2)CC(C)C(=O)C(C)C2NC(=O)OC12C (centres unmarked) [Example 218, R is —CH2CH═CH-(6-cyano-3-quinolyl)] | 0.1 (≈ 0.126 µM) | 0.1 (≈ 0.126 µM) | > 100 | 0.1 (≈ 0.126 µM) | 0.1 (≈ 0.126 µM) | 0.1 (≈ 0.126 µM) | > 100 | 0.01 (≈ 0.0126 µM) | 0.05 (≈ 0.0632 µM) | 0.01 (≈ 0.0126 µM) | 0.01 (≈ 0.0126 µM) | 0.01 (≈ 0.0126 µM) | 6.2 (≈ 7.84 µM) | 0.2 (≈ 0.253 µM) | 0.05 (≈ 0.0632 µM) | 0.05 (≈ 0.0632 µM) | 50 (≈ 63.2 µM) | 0.39 (≈ 0.493 µM) | > 100 | > 100 | MIC (organism code UU): 0.78 µg/mL (≈ 0.986 µM); MIC (organism code VV): 0.05 µg/mL (≈ 0.0632 µM); MIC (organism code XX): 0.015 µg/mL (≈ 0.019 µM); MIC (organism code YY): 0.015 µg/mL (≈ 0.019 µM); MIC (organism code ZZ): 4 µg/mL (≈ 5.06 µM); MIC (organism code ZZA): 0.25 µg/mL (≈ 0.316 µM) |
| CC[C@H]1OC(=O)[C@H](C)C(=O)[C@H](C)[C@@H](O[C@@H]2O[C@H](C)C[C@H](N(C)C)[C@H]2O)[C@@](C)(OCC#Cc2cnc3ccc([N+](=O)[O-])cc3c2)C[C@@H](C)C(=O)[C@H](C)[C@H]2NC(=O)O[C@@]21C [Example 248, Compound of Formula (IX): L is CO, T is NH, R is —CH2—C≡C-(6-nitro-3-quinolyl)] | 0.05 | 0.05 | > 100 | 0.05 | 0.05 | 0.02 | > 100 | 0.05 | 0.02 | 0.02 | ≤ 0.005 | ≤ 0.005 | 0.39 | 0.1 | 0.02 | 0.1 | 50 | 0.39 | 50 | > 100 | MIC (organism code UU): 0.39 µg/mL; MIC (organism code VV): 0.02 µg/mL; MIC (organism code WW): 3 µg/mL; MIC (organism code XX): 0.03 µg/mL; MIC (organism code YY): 0.03 µg/mL; MIC (organism code ZZ): 4 µg/mL; MIC (organism code ZZA): 0.25 µg/mL |
| CCC1OC(=O)C(C)C(=O)C(C)C(OC2OC(C)CC(N(C)C)C2O)C(C)(OCC=Cc2ccc(C)c3ccccc23)CC(C)C(=O)C(C)C2NC(=O)OC12C (centres unmarked) [Example 276, Compound of Formula (IX): L is CO, T is NH2, R is —CH2CH═CH-(4-methylnaphthyl)] | 0.39 | 0.78 | 50 | 0.39 | 0.78 | 0.78 | 25 | 0.78 | 0.2 | 0.02 | 0.1 | 0.02 | 25 | 0.39 | 0.1 | 0.39 | > 100 | 6.2 | > 100 | > 100 | MIC (organism code UU): 0.78 µg/mL; MIC (organism code VV): 1.56 µg/mL; MIC (organism code WW): 8 µg/mL; MIC (organism code XX): 0.125 µg/mL; MIC (organism code YY): 0.125 µg/mL; MIC (organism code ZZ): 16 µg/mL; MIC (organism code ZZA): 0.5 µg/mL |
